These results are taken from patent US8541460B2, “PDK-1/Akt signaling inhibitors” (The Ohio State University, priority 2003, dated 2013).

Read-outs that look alike come from different tables or passages of the source.

One assay has as its target T1, recombinant PDK-1 (Homo sapiens, UniProt O15530).
T1 construct: purchased Upstate (Lake Placid, N.Y.)
T1 sequence (O15530 1-556): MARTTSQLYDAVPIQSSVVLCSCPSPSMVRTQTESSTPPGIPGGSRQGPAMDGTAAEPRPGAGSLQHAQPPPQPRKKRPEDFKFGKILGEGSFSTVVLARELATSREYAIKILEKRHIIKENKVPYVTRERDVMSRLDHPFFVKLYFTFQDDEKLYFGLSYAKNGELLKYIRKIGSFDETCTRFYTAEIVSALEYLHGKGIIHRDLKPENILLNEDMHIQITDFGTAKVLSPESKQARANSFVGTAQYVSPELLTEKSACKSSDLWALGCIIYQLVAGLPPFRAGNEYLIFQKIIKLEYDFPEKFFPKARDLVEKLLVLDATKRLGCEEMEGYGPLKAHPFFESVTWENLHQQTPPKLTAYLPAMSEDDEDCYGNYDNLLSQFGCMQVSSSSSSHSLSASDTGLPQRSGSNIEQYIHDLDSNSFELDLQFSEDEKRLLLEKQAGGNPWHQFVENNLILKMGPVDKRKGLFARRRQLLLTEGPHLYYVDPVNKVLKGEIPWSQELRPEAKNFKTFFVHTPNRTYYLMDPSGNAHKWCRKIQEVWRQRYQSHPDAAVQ
Briefly: PDK-1 kinase activity (Upstate kit, cell-free). In kind it is biochemical.

In a further assay the test system is PC-3 cells. Briefly: PC-3 cell viability analysis (MTT). In kind it is cell-based, human. The procedure: Cell Culture PC-3 (p53−/−) human androgen-nonresponsive prostate cancer cells were purchased from the American […] (Manassas, Va.). Cells were cultured in RPMI 1640 medium (Gibco, Grand Island, N.Y.) supplemented with 10% fetal bovine serum (FBS; Gibco) at 37° C. in a humidified incubator containing 5% CO2.
Cell viability analysis The effect of 4-[5-(4-methylphenyl)-3-(trifluoromethyl)-1H-pyrazol-1-yl]benzenesulfonamide and its derivatives on PC-3 cell viability was assessed by using the MTT {[3-(4,5-dimethylthiazol-2-yl)-2,5-diphenyl-2H-tetrazolium bromide]} assay in six replicates. Cells were grown in 10% FBS-supplemented RPMI 1640 medium in 96-well, flat bottomed plates for 24 h, and were exposed to various concentrations of compounds 1-36 dissolved in DMSO (final concentration≦0.1%) in 1% serum-containing RPMI 1640 medium for different time intervals. Controls received DMSO vehicle at a concentration equal to that in drug-treated cells. The medium was removed, replaced by 200 μl of 0.5 mg/ml of MTT in 10% FBS-containing RPMI-1640 medium, and cells were incubated in the CO2 incubator at 37° C. for 2 h. Supernatants were removed from the wells, and the reduced MTT dye was solubilized in 200 μL/well DMSO. Absorbance at 570 nm was determined on a plate reader.

The subject of the next assay is phospho-473Ser Akt. In words: Western blot of Akt and phospho-Akt in PC-3 cells. In kind it is cell-based, human. To be noted: 5 μM and above. The procedure: Immunoblotting. The general procedure for the Western blot analysis of Akt and phospho-Akt is described as follows. Cells were washed in PBS, resuspended in SDS sample buffer sonicated by an ultrasonic sonicator for 5 sec, and boiled for 5 min. After brief centrifugation, equivalent protein concentrations from the soluble fractions were resolved in 10% SDS-polyacrylamide gels on a Minigel apparatus, and transferred to a nitrocellulose membrane using a semi-dry transfer cell. The transblotted membrane was washed three times with TBS containing 0.05% Tween 20 (TBST). After blocking with TBST containing 5% nonfat milk for 60 min., the membrane was incubated with the primary antibody at 1:1,000 dilution in TBST-5% low fat milk at 4° C. for 12 h, and was then washed three times with TBST. The membrane was probed with goat anti-rabbit IgG-HRP conjugates (1:1,000) for 1 h at room temperature, and was washed with TBST three times. The immunoblots were visualized by enhanced chemiluminescence.
For orientation: Immunoblotting shows a protein as a band on a membrane.

The test system of another assay is Akt. Briefly: Immunoprecipitated Akt kinase assay, drug-treated PC-3 cells (intracellular Akt activation). In kind it is cell-based. To be noted: Homo sapiens, PC-3 cells treated 2 h, read-out: IC50 for inhibiting intracellular Akt activation. The procedure:
Immunoprecipitated Akt kinase assay Akt immunoprecipitation was carried out according to a modified, published procedure. PC-3 cells were treated with DMSO vehicle or the test agents at the indicated concentrations for 2 h and then lysed at 4° C. for 1 h in buffer A containing 50 mM Tris-HCl, pH 7.5, 1% Triton X-100, 1 mM EDTA, 1 mM EGTA, 50 mM sodium fluoride, 10 mM sodium β-glycerophosphate. 0.1% 2-mercaptoethanol, 0.1 mM phenylmethylsiilfonyl fluoride, and 1 μg/mL each of aprotinin, pepstatin, and leupeptin. Cell lysates were centrifuged at 10,000 g for 5 min, and the supernatant was treated with anti-Akt at 4° C. for 60 min., followed by protein G-agarose beads for additional 60 min. The immunoprecipitate was used to analyze Akt kinase activity by using the Akt/SGK-specific peptide substrate RPRAATF as described above. Values represented the means of two independent determinations.

The next assay concerns immunoprecipitated Akt. Briefly: Direct inhibition of immunoprecipitated Akt kinase activity. In kind it is biochemical, human.
Setting [1] is: inhibiting recombinant PDK-1 kinase activity, read-out: IC50 PDK-1.
Where [2] appears, read: inducing apoptotic death in PC-3 cells / PC-3 cell viability, read-out: IC50 PC-3.

Experimental for recombinant PDK-1: PDK-1 kinase activity This in vitro assay was performed using a PDK-1 kinase assay kit (Upstate, Lake Placid, N.Y.) according to the vendor's instructions. This cell-free assay is based on the ability of recombinant PDK-1, in the presence of DMSO vehicle or the test agent, to activate its downstream kinase serum- and glucocorticoid-regulated kinase (SGK.) which, in turn, phosphorylates the Akt/SGK-specific peptide substrate RPRAATF with [γ-^32]-ATP. […] The reported values represent the means of two independent determinations.

Regarding “4-[5-(4′triflouromethyl[1,1′-biphenyl]-4-yl)-3-(trifluoromethyl)-1H-1-yl]benzenesulfonamide [Compound 51]”, the IC50 on recombinant PDK-1 (setting [1]) amounted to 18 µM; with PC-3 cells (setting [2]) it was 8 µM.

Consider `O/N=C/c1ccc(-n2nc(C(F)(F)F)cc2-c2ccc3c(ccc4ccccc43)c2)cc1` [Compound 65, 4-5[-(2-Phenanthrenyl)-3-(trifluoromethyl)-1H-pyraxol-1-yl]-benzaldehyde oxime], for which the IC50 on recombinant PDK-1 came out at 25 µM.

Consider “5-(2-Phenanthrenyl)-3-(trifluoromethyl)-4-(1H-tetrazol-5-ylphenyl)-1H-pyrazole [Compound 64]”, for which the results for the IC50 at recombinant PDK-1 (setting [1]) and with PC-3 cells (setting [2]) were 52 µM and 32 µM, respectively.

Consider “5-(2-Phenanthrenyl)-3-(trifluoromethyl)-4-(1H-tetrazol-5-ylmethylphenyl)-1H-pyrazole [Compound 69]”, for which the values for the IC50 at recombinant PDK-1 (setting [1]) and with PC-3 cells (setting [2]) were 45 µM and 27 µM, respectively.

For `NS(=O)(=O)c1ccc(-n2nc(C(F)(F)F)cc2-c2ccc3c(ccc4ccccc43)c2)cc1` [Compound 59, 4-[5-(2-phenanthrenyl)-3-(trifluoromethyl)-1H-1-yl]benzenesulfonamide], the IC50 in the assay with PC-3 cells (Homo sapiens, PC-3, 24 h, 1% FBS-containing RPMI 1640 medium, read-out: dose required to induce 50% PC-3 cell death) is 5 µM; in the assay with PC-3 cells (Homo sapiens, inducing apoptotic death in PC-3 cells / PC-3 cell viability, read-out: IC50 PC-3), 5 µM; in the assay on Akt it was 5 µM. Besides, the “Akt dephosphorylation (Western blot)” value in the assay on phospho-473Ser Akt was “significant Akt dephosphorylation”. For the same compound, the “direct inhibitory effect on immunoprecipitated Akt activity” value in the assay with immunoprecipitated Akt is reported as “Neither compound 59 nor other the other compounds displayed a direct inhibitory effect”.
